{
  "source": "patent US10472341B2",
  "about": "“Bicyclic tetrahydrothiazepine derivatives useful for the treatment of neoplastic and/or infectious diseases” (APEIRON BIOLOGICS AG, priority 2015, dated 2019)",
  "data": [
    {"tested_on": "aCD3/aCD28-stimulated human CD4+-T-cells", "experiment": "IL-2 production and activation markers in aCD3/aCD28 stimulated isolated human CD4+-T-cells", "assay_type": "cell-based", "conditions": "IL-2 production at 3 μM compound", "experimental": "• Buffy coat content was transferred to sterile plastic bottle and filled up to 480 ml with PBS, and distributed equally to 16×50 ml tubes (30 ml/tube) • Underlayed with ˜11 ml Lymphoprep and centrifuged 20 min (2200 rpm) • The interphase containing lymphocytes was taken off with transfer pipette, cells were washed twice with PBS and pooled to one tube to determine cell count (Coulter Diff ACT) Isolation of Immune Cell Subfractions from PBMCs by MACS • PBMCs were resuspended in MACS buffer (80 μl MACS-buffer/10^7 cells) and cells were isolated with Auto-MACS device using respective kits following manufacturer's recommendations TCR Stimulation and Measurement of T Cell Activation\nIsolated T cells were plated in Xvivo medium at 1.5*10 ^5 cells per in 96 well culture plates and TCR-stimulated with anti-CD3/28 mAbs in the presence of compound as indicated. Cytokine production was determined at 24 h or 48 h following TCR stimulation in cell culture supernatants using commercially available ELISA kits (BD and eBioscience) as recommended by the manufacturer. T cell proliferation and CD25 expression (CD25-PC5 reagent purchased from Beckman Coulter) was determined by flow cytometry (Beckman-Coulter FC500) and analysed with Kaluza Software. For measurement of CD69 expression, isolated CD4 and CD8 T cells were plated in Xvivo medium at […] per in 96 well culture plates and TCR-stimulated with anti-CD3/28 mAbs in the presence of compound. CD69 expression was determined at 24 h following TCR stimulation by flow cytometry (CD4eF450, CD8APCeF780 and CD69-PC7 reagent purchased from eBioscience) and analysed with Kaluza Software.\nBuffy coats were obtained from Austrian Red Cross, diluted 3 fold with PBS and layered onto an isotonic Ficoll separating solution d=1.077 g/m in 50 ml centrifuge tubes. The tubes were centrifuged at 914 g for 25 min at room temperature with the brakes off. The PBMC layer was removed and washed twice with ice-cold PBS. CD4 T cells were isolated using CD4 microbeads (Milteny) and the AutoMACS device following manufacturer's instructions.\nCompound examples of the present invention were classified according to the following activity criteria and are listed in Table 4a: • Activity Class A: IL-2 production at 3 μM compound concentration >10 ng/mL • Activity Class B: IL-2 production at 3 μM compound concentration between 2-10 ng/mL • Activity Class C: IL-2 production at 3 μM compound concentration between 2-fold increase as compared to mean IL-2 production of stimulated cells in the absence of compounds and <2 ng/mL", "values": [
      {"smiles": "Cl.N[C@H]1CS(=O)(=O)c2ccc(C(=O)NOCC3CCCCC3)cc2N(Cc2ccc(Cl)cc2)C1=O", "note": "[Example 91, (3R)-3-amino-5-[(4-chlorophenyl)methyl]-N-(cyclohexylmethoxy)-1,1,4-trioxo-2,3,4,5-tetrahydro-1λ^6,5-benzothiazepine-7-carboxamide hydrochloride]", "Activity Class CD4+": "B (IL-2 production at 3 μM compound concentration between 2-10 ng/mL)"},
      {"smiles": "CCCCNC(=O)c1ccc2c(c1)N(Cc1ccc(C(N)=O)cc1)C(=O)[C@@H](N)CS2.Cl", "note": "[Example 47, (3R)-3-amino-N-butyl-5-[(4-carbamoylphenyl)methyl]-4-oxo-2,3,4,5-tetrahydro-1,5-benzothiazepine-7-carboxamide hydrochloride]", "Activity Class CD4+": "C (IL-2 production at 3 μM compound concentration between 2-fold increase as compared to mean IL-2 production of stimulated cells in the absence of compounds and <2 ng/mL)"},
      {"smiles": "CC(C)CONC(=O)c1ccc2c(c1)N(Cc1ccc(Cl)cc1)C(=O)[C@@H](N)CS2.Cl", "note": "[Example 62, (3R)-3-amino-5-[(4-chlorophenyl)methyl]-N-(2-methylpropoxy)-4-oxo-2,3,4,5-tetrahydro-1,5-benzothiazepine-7-carboxamide hydrochloride]", "Activity Class CD4+": "C (IL-2 production at 3 μM compound concentration between 2-fold increase as compared to mean IL-2 production of stimulated cells in the absence of compounds and <2 ng/mL)"},
      {"smiles": "CC(C)NC(=O)c1cc2c(cc1F)SC[C@H](N)C(=O)N2Cc1ccc(OC(F)(F)F)cc1.Cl", "note": "[Example 15, (3R)-3-amino-8-fluoro-4-oxo-N-(propan-2-yl)-5-{[4-(trifluoromethoxy)phenyl]-methyl}-2,3,4,5-tetrahydro-1,5-benzothiazepine-7-carboxamide hydrochloride]", "Activity Class CD4+": "B (IL-2 production at 3 μM compound concentration between 2-10 ng/mL)"},
      {"smiles": "Cl.N[C@H]1CS(=O)(=O)c2cc(F)c(C(=O)NOc3ccccc3)cc2N(Cc2ccc(Cl)cc2)C1=O", "note": "[Example 76, (3R)-3-amino-5-[(4-chlorophenyl)methyl]-8-fluoro-1,1,4-trioxo-N-phenoxy-2,3,4,5-tetrahydro-1λ^6,5-benzothiazepine-7-carboxamide hydrochloride]", "Activity Class CD4+": "C (IL-2 production at 3 μM compound concentration between 2-fold increase as compared to mean IL-2 production of stimulated cells in the absence of compounds and <2 ng/mL)"},
      {"smiles": "Cl.N[C@H]1CSc2cc(F)c(C(=O)NC3CCOCC3)cc2N(Cc2ccc(OC(F)(F)F)cc2)C1=O", "note": "[Example 14, (3R)-3-amino-8-fluoro-N-(oxan-4-yl)-4-oxo-5-{[4-(trifluoromethoxy)phenyl]methyl}-2,3,4,5-tetrahydro-1,5-benzothiazepine-7-carboxamide hydrochloride]", "Activity Class CD4+": "C (IL-2 production at 3 μM compound concentration between 2-fold increase as compared to mean IL-2 production of stimulated cells in the absence of compounds and <2 ng/mL)"},
      {"smiles": "CCCCNC(=O)c1cc2c(cc1F)SC[C@H](N)C(=O)N2Cc1ccc2ccccc2n1.Cl.Cl", "note": "[Example 112, (3R)-3-amino-N-butyl-8-fluoro-4-oxo-5-(quinolin-2-ylmethyl)-2,3,4,5-tetrahydro-1,5-benzothiazepine-7-carboxamide dihydrochloride]", "Activity Class CD4+": "C (IL-2 production at 3 μM compound concentration between 2-fold increase as compared to mean IL-2 production of stimulated cells in the absence of compounds and <2 ng/mL)"},
      {"smiles": "Cl.N[C@H]1CSc2ccc(C(=O)NC3CCOCC3)cc2N(Cc2ccc(OC(F)(F)F)cc2)C1=O", "note": "[Example 8, (3R)-3-amino-N-(oxan-4-yl)-4-oxo-5-{[4-(trifluoromethoxy)phenyl]methyl}-2,3,4,5-tetrahydro-1,5-benzothiazepine-7-carboxamide hydrochloride]", "Activity Class CD4+": "C (IL-2 production at 3 μM compound concentration between 2-fold increase as compared to mean IL-2 production of stimulated cells in the absence of compounds and <2 ng/mL)"},
      {"smiles": "CC(C)(C)ONC(=O)c1ccc2c(c1)N(Cc1ccc(Cl)cc1)C(=O)[C@@H](N)CS2(=O)=O.Cl", "note": "[Example 97, (3R)-3-amino-N-(tert-butoxy)-5-[(4-chlorophenyl)methyl]-1,1,4-trioxo-2,3,4,5-tetrahydro-1λ^6,5-benzothiazepine-7-carboxamide hydrochloride]", "Activity Class CD4+": "C (IL-2 production at 3 μM compound concentration between 2-fold increase as compared to mean IL-2 production of stimulated cells in the absence of compounds and <2 ng/mL)"},
      {"smiles": "CC(C)(C)c1cc(NC(=O)c2ccc3c(c2)N(Cc2ccc(Cl)cc2)C(=O)[C@@H](N)CS3)no1.Cl", "note": "[Example 24, (3R)-3-amino-N-(5-tert-butyl-1,2-oxazol-3-yl)-5-[(4-chlorophenyl)methyl]-4-oxo-2,3,4,5-tetrahydro-1,5-benzothiazepine-7-carboxamide hydrochloride]", "Activity Class CD4+": "C (IL-2 production at 3 μM compound concentration between 2-fold increase as compared to mean IL-2 production of stimulated cells in the absence of compounds and <2 ng/mL)"},
      {"smiles": "Cl.N[C@H]1CSc2cc(F)c(C(=O)NNc3ccc(F)cc3)cc2N(Cc2ccc(Cl)cc2)C1=O", "note": "[Example 52, (3R)-3-amino-5-[(4-chlorophenyl)methyl]-8-fluoro-N′-(4-fluorophenyl)-4-oxo-2,3,4,5-tetrahydro-1,5-benzothiazepine-7-carbohydrazide hydrochloride]", "Activity Class CD4+": "C (IL-2 production at 3 μM compound concentration between 2-fold increase as compared to mean IL-2 production of stimulated cells in the absence of compounds and <2 ng/mL)"},
      {"smiles": "CCCONC(=O)c1ccc2c(c1)N(Cc1ccc(Cl)cc1)C(=O)[C@@H](N)CS2(=O)=O.Cl", "note": "[Example 82, (3R)-3-amino-5-[(4-chlorophenyl)methyl]-1,1,4-trioxo-N-propoxy-2,3,4,5-tetrahydro-1λ^6,5-benzothiazepine-7-carboxamide hydrochloride]", "Activity Class CD4+": "C (IL-2 production at 3 μM compound concentration between 2-fold increase as compared to mean IL-2 production of stimulated cells in the absence of compounds and <2 ng/mL)"},
      {"smiles": "C[C@H](NC(=O)c1ccc2c(c1)N(Cc1ccc(Cl)cc1)C(=O)[C@@H](N)CS2)c1ccc(F)cc1.Cl", "note": "[Example 49, (3R)-3-amino-5-[(4-chlorophenyl)methyl]-N-[(1S)-1-(4-fluorophenyl)ethyl]-4-oxo-2,3,4,5-tetrahydro-1,5-benzothiazepine-7-carboxamide hydrochloride]", "Activity Class CD4+": "C (IL-2 production at 3 μM compound concentration between 2-fold increase as compared to mean IL-2 production of stimulated cells in the absence of compounds and <2 ng/mL)"},
      {"smiles": "Cl.N[C@H]1CS(=O)(=O)c2ccc(C(=O)NOC3CCCCC3)cc2N(Cc2ccc(Cl)cc2)C1=O", "note": "[Example 90, (3R)-3-amino-5-[(4-chlorophenyl)methyl]-N-(cyclohexyloxy)-1,1,4-trioxo-2,3,4,5-tetrahydro-1λ^6,5-benzothiazepine-7-carboxamide hydrochloride]", "Activity Class CD4+": "A (IL-2 production at 3 μM compound concentration >10 ng/mL)"},
      {"smiles": "CC(=O)NCCCCCOc1ccc(CNC(=O)c2ccc3c(c2)N(Cc2ccc(OC(F)(F)F)cc2)C(=O)[C@@H](N)CS3)cc1.Cl", "note": "[Example 19, (3R)-3-amino-N-({4-[(5-acetamidopentyl)oxy]phenyl}methyl)-4-oxo-5-{[4-(trifluoromethoxy)phenyl]methyl}-2,3,4,5-tetrahydro-1,5-benzothiazepine-7-carboxamide hydrochloride]", "Activity Class CD4+": "C (IL-2 production at 3 μM compound concentration between 2-fold increase as compared to mean IL-2 production of stimulated cells in the absence of compounds and <2 ng/mL)"}
    ]}
  ]
}
